Experimental data: paper PMC3635961, “Identification of genes related to agarwood formation: transcriptome analysis of healthy and wounded tissues of Aquilaria sinensis” (BMC Genomics, 2013)
Residue numbers refer to the chain shown, from its start.

Key:
Experiment in all cases: GC-MS of volatile products (SPME)
Type in all cases: biochemical
Conditions in all cases: Tris-HCl pH 7.0, MgSO4, DTT, 10% glycerol, 30 C, 4 h; crude protein extract
ASS1 = target: T1, ASS1 (Aquilaria sinensis, UniProt K9MQ67)
T1 construct: full-length ORF (1644 nt, 547 residues), pET-28a XhoI/BamHI, His-tag fusion, E. coli BL21(DE3); crude protein extract assayed

ASS3 = target: T2, ASS3 (Aquilaria sinensis, UniProt K9MPP8)
T2 construct: full-length ORF (1644 nt, 547 residues), pET-28a fusion protein, E. coli; crude protein extract assayed
T2 sequence (K9MPP8 1-547): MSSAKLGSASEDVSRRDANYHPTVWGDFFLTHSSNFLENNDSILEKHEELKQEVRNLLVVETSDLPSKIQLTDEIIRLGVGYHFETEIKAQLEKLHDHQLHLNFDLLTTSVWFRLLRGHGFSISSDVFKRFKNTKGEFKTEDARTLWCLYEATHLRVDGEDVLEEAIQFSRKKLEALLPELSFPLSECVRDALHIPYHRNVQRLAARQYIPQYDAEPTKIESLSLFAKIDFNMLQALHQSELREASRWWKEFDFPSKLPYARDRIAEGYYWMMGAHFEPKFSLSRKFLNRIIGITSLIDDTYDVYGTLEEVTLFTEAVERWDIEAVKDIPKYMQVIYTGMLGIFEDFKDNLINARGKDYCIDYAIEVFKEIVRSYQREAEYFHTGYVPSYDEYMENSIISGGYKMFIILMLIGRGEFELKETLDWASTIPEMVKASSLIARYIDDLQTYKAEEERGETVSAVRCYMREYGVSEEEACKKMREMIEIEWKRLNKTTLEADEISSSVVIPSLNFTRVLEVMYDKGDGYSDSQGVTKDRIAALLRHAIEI

ASS2 = target: T3, ASS2 (Aquilaria sinensis, UniProt K9MNV6)
T3 construct: full-length ORF (1644 nt, 547 residues), pET-28a fusion protein, E. coli; crude protein extract assayed
T3 sequence (K9MNV6 1-547): T2 sequence (K9MPP8 1-547) with E454K, R481K

T1 sequence (K9MQ67 entry or part of it): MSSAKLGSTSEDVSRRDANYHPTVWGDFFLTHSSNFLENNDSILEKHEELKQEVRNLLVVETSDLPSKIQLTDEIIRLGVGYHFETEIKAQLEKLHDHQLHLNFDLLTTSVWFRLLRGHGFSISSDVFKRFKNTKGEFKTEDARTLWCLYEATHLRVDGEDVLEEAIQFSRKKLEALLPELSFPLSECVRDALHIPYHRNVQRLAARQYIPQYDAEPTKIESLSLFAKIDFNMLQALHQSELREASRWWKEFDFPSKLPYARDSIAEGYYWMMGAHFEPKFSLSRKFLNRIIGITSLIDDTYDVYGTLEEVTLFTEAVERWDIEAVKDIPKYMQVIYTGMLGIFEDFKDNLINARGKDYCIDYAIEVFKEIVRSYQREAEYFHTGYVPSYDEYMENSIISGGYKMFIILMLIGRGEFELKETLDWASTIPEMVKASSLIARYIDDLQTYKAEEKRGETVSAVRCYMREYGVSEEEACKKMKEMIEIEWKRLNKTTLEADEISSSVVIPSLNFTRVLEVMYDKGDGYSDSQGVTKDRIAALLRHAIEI

## CC(C)=CCC/C(C)=C/CC/C(C)=C/COP(=O)(O)OP(=O)(O)O [FPP]
ASS1
  GC-MS of volatile products (SPME): ASS1-3 did not accept geranyl diphosphate or geranylgeranyl diphosphate as a substrate, converting only FPP
ASS3
  GC-MS of volatile products (SPME): ASS1-3 did not accept geranyl diphosphate or geranylgeranyl diphosphate as a substrate, converting only FPP
ASS2
  GC-MS of volatile products (SPME): ASS1-3 did not accept geranyl diphosphate or geranylgeranyl diphosphate as a substrate, converting only FPP
